Measured values reported in patent publication US20030207856A1, “Medical devices and compositions for delivering anti-proliferatives to anatomical sites at risk for restenosis” (priority 2002, published 2003).

System: Human coronary smooth muscles cells (HCASMC)
Assay: Human coronary artery smooth muscle cell proliferation inhibition
Format: cell-based
Settings: day four, both cell culture schemes, FIGS. 6 and 7
Procedure: Inhibition of Human Coronary Artery Smooth Muscle Cells by Geldanamycin
1. Human coronary smooth muscles cells (HCASMC) were obtained from Clonetics, a division of Cambrex, Inc.
2. HCASMA basal media, supplied by Clonetics and supplemented with fetal bovine serum, insulin, hFGF-B (human fibroblast growth factor) hEGF (human epidermal growth factor).
Human coronary smooth muscles cells (HCASMC) were seeded in 24 well polystyrene tissue culture plates at a density of 5×10^3 cells per well. Two different feeding and reading strategies were employed. Strategy 1: Cells were plated in cell culture media containing various concentrations of geldanamycin (see Table 1) and incubated at 37° C. for 48 hours. After the initial 48 hour incubation, the geldanamycin containing plating media was changed and the cells were fed with drug free media and incubated for an additional 48 hours and then read.
Strategy 2: Cells were plated in cell culture media containing various concentrations of geldanamycin (see Table 1) and incubated at 37° C. for 48 hours. After the initial 48 hours incubation, the geldanamycin-containing plating media was changed and the cells were fed with geldanamycin-containing media and incubated for an additional 48 hours and then read. […]
On day four cultures were analyzed to determine the proliferation inhibition effects of geldanamycin. […]

COC1=C2C[C@@H](C)C[C@H](OC)[C@H](O)[C@@H](C)/C=C(\C)[C@H](OC(N)=O)[C@@H](OC)/C=C\C=C(/C)C(=O)NC(=CC1=O)C2=O [geldanamycin]
HCASMC inhibition (percent inhibition of proliferation) (geldanamycin 0.9 nM): > 50% | HCASMC inhibition (percent inhibition of proliferation) (geldanamycin 50 nM): ~100%
